As usually defined, the IC50 is the midpoint of a concentration-inhibition curve.

Each structure is given as a SMILES string. Where a SMILES comes first, the peptide text is derived from it. Bridges are numbered along the chain shown (N, C = ends). [ ]: non-standard residue; d: D form. The star is where a group is joined. ξ: configuration not given here. Ala(1-amidino-4-piperidyl) = N=C(N)N1CCC(C[C@H](N)C(=O)O)CC1; Phe(4-COOH) = N[C@@H](Cc1ccc(C(=O)O)cc1)C(=O)O; Bip = N[C@@H](Cc1ccc(-c2ccccc2)cc1)C(=O)O; Phe(4-CN) = N#Cc1ccc(C[C@H](N)C(=O)O)cc1; Phe(3-Me) = Cc1cccc(C[C@H](N)C(=O)O)c1; Val(3-OH) = CC(C)(O)[C@H](N)C(=O)O; Benzoyl(4-F) = O=C(c1ccc(F)cc1)*; 4Pal = N[C@@H](Cc1ccncc1)C(=O)O; 3Thi = N[C@@H](Cc1ccsc1)C(=O)O; Cha = N[C@@H](CC1CCCCC1)C(=O)O; Cit = NC(=O)NCCC[C@H](N)C(=O)O; Carboxymethyl = O=C(O)C*; Orn = NCCC[C@H](N)C(=O)O; Dab = NCC[C@H](N)C(=O)O; Dap = NC[C@H](N)C(=O)O; ξPra = C#CCC(N)C(=O)O

The target in this test is T1, human PD-1 / PD-L1-Ig binding on Jurkat cell line over-expressing human PD-1 (Jurkat-PD-1) (Homo sapiens, UniProt Q15116).
T1 construct: expressed in transfected cells; host or cells: Jurkat
Description: Jurkat-PD-1 Cell Binding High-Content Screening Assay (CBA). Format: cell-based. The settings on record: Jurkat-PD-1 cells, PE-labeled PD-L1-Ig 20 nM final; read-out: Jurkat HPD1_PDL1 IC50. Put shortly: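 PE-PD-L1-Ig 20 nM final; cells in DMEM/10% FCS; cpd pre-incubation 2 h, 37° C; ligand 1 h; PFA fix + Hoechst 33342; high-content imaging read-out.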

T1 sequence (Q15116 25-288): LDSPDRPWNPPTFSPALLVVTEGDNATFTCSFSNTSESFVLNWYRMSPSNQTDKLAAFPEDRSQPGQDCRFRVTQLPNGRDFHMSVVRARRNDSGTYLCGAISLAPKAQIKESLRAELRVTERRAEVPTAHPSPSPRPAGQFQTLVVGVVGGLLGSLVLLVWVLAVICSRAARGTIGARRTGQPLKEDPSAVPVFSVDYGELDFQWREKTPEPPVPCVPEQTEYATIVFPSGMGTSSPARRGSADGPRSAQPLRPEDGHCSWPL

For the compound `CC(C)C[C@@H]1NC(=O)[C@H](CCN)NC(=O)[C@@H](CC(C)C)NC(=O)[C@H](CCN)NC(=O)[C@H](CCCNC(N)=O)NC(=O)[C@H](Cc2ccc(-c3ccccc3)cc2)NC(=O)[C@H](C(C)C)NC(=O)[C@H](Cc2c[nH]c3ccccc23)NC(=O)[C@H](CC(=O)O)NC(=O)[C@H](Cc2ccc(O)cc2)NC(=O)[C@H](CC(N)=O)NC(=O)CSC[C@@H](C(=O)NCC(N)=O)NC(=O)[C@H](CO)NC(=O)[C@H](C(C)C)NC1=O` [Compound 1114] ({CH2CO}-NYDWV[Bip][Cit][Dab][dL][Dab]LVSCG-NH2; thioether N-14), the IC50 was 31.6 nM. To `Cc1cccc(C[C@@H]2NC(=O)[C@H](CC(=O)O)NC(=O)[C@H](Cc3ccc(OCC(=O)O)cc3)NC(=O)[C@H](Cc3ccncc3)NC(=O)CSC[C@@H](C(=O)N[C@@H](CCN)C(N)=O)NC(=O)[C@H](CO)NC(=O)[C@H](C(C)(C)O)NC(=O)[C@H](CC3CCCCC3)NC(=O)[C@H](CCN)NC(=O)[C@@H](CC(C)C)NC(=O)C(C3CCNCC3)NC(=O)[C@H](Cc3ccc(OCC(=O)O)cc3)NC(=O)[C@H](Cc3ccc(-c4ccccc4)cc3)NC(=O)[C@H](Cc3ccc(OCC(=O)O)cc3)NC2=O)c1` (mixture of isomers) [Compound 2084] belongs 209 nM; to `CC(C)C[C@H]1NC(=O)[C@H](CCCN)NC(=O)[C@H](CCCNC(N)=O)NC(=O)[C@H](Cc2ccc(-c3ccccc3)cc2)NC(=O)[C@H](C(C)C)NC(=O)[C@H](Cc2c[nH]c3ccccc23)NC(=O)[C@H](CC(=O)O)NC(=O)[C@H](Cc2ccncc2)NC(=O)[C@H](Cc2ccc(OCC(=O)O)cc2)NC(=O)CSC[C@@H](C(=O)N[C@@H](C)C(N)=O)NC(=O)[C@H]([C@@H](C)O)NC(=O)[C@H](C(C)C)NC(=O)[C@H](CC2CCCCC2)NC(=O)[C@H](CCN)NC1=O` [Compound 1326], 12.1 nM.

On to `Cc1cccc(C[C@@H]2NC(=O)[C@H](CC(=O)O)NC(=O)[C@H](Cc3ccc(C(=O)O)cc3)NC(=O)[C@H](Cc3ccsc3)NC(=O)CSC[C@@H](C(=O)N[C@@H](CCN)C(N)=O)NC(=O)[C@H](CO)NC(=O)[C@H](C(C)(C)O)NC(=O)[C@H](CC3CCCCC3)NC(=O)[C@H](CCN)NC(=O)[C@@H](CC(C)C)NC(=O)[C@H](CCCN)NC(=O)[C@H](Cc3ccc(OCC(=O)O)cc3)NC(=O)[C@H](Cc3ccc(-c4ccccc4)cc3)NC(=O)[C@H](Cc3ccc(OCC(=O)O)cc3)NC2=O)c1` [Compound 2617] ({CH2CO}-[3Thi][Phe(4-COOH)]D[Phe(3-Me)]Y(Carboxymethyl)[Bip]Y(Carboxymethyl)[Orn][dL][Dab][Cha][Val(3-OH)]SC[Dab]-NH2; thioether N-14), for which the IC50 amounted to 3.1 nM. The figure for `Cc1cccc(C[C@@H]2NC(=O)[C@H](CC(=O)O)NC(=O)[C@H](Cc3ccc(OCC(=O)O)cc3)NC(=O)[C@H](CCNC(=O)c3ccc(F)cc3)NC(=O)CSC[C@@H](C(N)=O)NC(=O)[C@H]([C@@H](C)O)NC(=O)[C@H](C(C)C)NC(=O)[C@H](CC3CCCCC3)NC(=O)[C@H](CCN)NC(=O)[C@@H](CC(C)C)NC(=O)[C@H](CCCN)NC(=O)[C@H](Cc3ccc(OCC(=O)O)cc3)NC(=O)[C@H](Cc3ccc(-c4ccccc4)cc3)NC(=O)[C@H](Cc3ccc(O)cc3)NC2=O)c1` [Compound 2049] ({CH2CO}-[Dab](Benzoyl(4-F))Y(Carboxymethyl)D[Phe(3-Me)]Y[Bip]Y(Carboxymethyl)[Orn][dL][Dab][Cha]VTC-NH2; thioether N-14) is 79.3 nM; for `C#CCC(NC(=O)[C@H](CCCN)NC(=O)[C@@H]1CSCC(=O)N[C@@H](Cc2ccncc2)C(=O)N[C@@H](Cc2ccc(OCC(=O)O)cc2)C(=O)N[C@@H](CC(=O)O)C(=O)N[C@@H](Cc2c[nH]c3ccccc23)C(=O)N[C@@H](C(C)C)C(=O)N[C@@H](Cc2ccc(-c3ccccc3)cc2)C(=O)N[C@@H]([C@@H](C)CC)C(=O)N[C@@H](CCCN)C(=O)N[C@H](CC(C)C)C(=O)N[C@@H](CCN)C(=O)N[C@@H](CC(C)C)C(=O)N[C@@H](C(C)C)C(=O)N[C@@H]([C@@H](C)O)C(=O)N1)C(N)=O` (stereo partly drawn) [Compound 1760] ({CH2CO}-[4Pal]Y(Carboxymethyl)DWV[Bip]I[Orn][dL][Dab]LVTC[Orn][ξPra]-NH2; thioether N-14) it is 39.6 nM.

Turning to `CC(C)C[C@H]1NC(=O)[C@H](CN)NC(=O)[C@H](C(C)C)NC(=O)[C@H](Cc2ccc(-c3ccccc3)cc2)NC(=O)[C@H](C(C)C)NC(=O)[C@H](Cc2c[nH]c3ccccc23)NC(=O)[C@H](CC(=O)O)NC(=O)[C@H](Cc2ccc(OCC(=O)O)cc2)NC(=O)[C@H](CN)NC(=O)CSC[C@@H](C(=O)NCC(N)=O)NC(=O)[C@H](CO)NC(=O)[C@H](C(C)C)NC(=O)[C@H](CC2CCCCC2)NC(=O)[C@H](CC(N)=O)NC1=O` [Compound 1652] ({CH2CO}-[Dap]Y(Carboxymethyl)DWV[Bip]V[Dap][dL]N[Cha]VSCG-NH2; thioether N-14), the IC50 was determined as 20.3 nM.

For `CC(C)C[C@H]1NC(=O)[C@H](CCCN)NC(=O)[C@H](C(C)C)NC(=O)[C@H](Cc2ccc(-c3ccccc3)cc2)NC(=O)[C@H](C(C)C)NC(=O)[C@H](Cc2c[nH]c3ccccc23)NC(=O)[C@H](CC(=O)O)NC(=O)[C@H](Cc2ccc(OCC(=O)O)cc2)NC(=O)[C@H](Cc2ccc(OCC(=O)O)cc2)NC(=O)CSC[C@@H](C(=O)N[C@@H](C)C(N)=O)NC(=O)[C@H](CCCNC(=N)N)NC(=O)[C@H](C(C)C)NC(=O)[C@H](CC2CCCCC2)NC(=O)[C@H](CCN)NC1=O` [Compound 1749] ({CH2CO}-Y(Carboxymethyl)Y(Carboxymethyl)DWV[Bip]V[Orn][dL][Dab][Cha]VRCA-NH2; thioether N-14), the IC50 was 4.2 nM.

As to `CC(C)C[C@H]1NC(=O)[C@H](CCCN)NC(=O)[C@H](CCCN)NC(=O)[C@H](Cc2ccc(-c3ccccc3)cc2)NC(=O)[C@H](C(C)C)NC(=O)[C@H](Cc2c[nH]c3ccccc23)NC(=O)[C@H](CC(=O)O)NC(=O)[C@H](Cc2ccc(OCC(=O)O)cc2)NC(=O)[C@H](CN)NC(=O)CSC[C@@H](C(=O)N[C@@H](C)C(N)=O)NC(=O)[C@H]([C@@H](C)O)NC(=O)[C@H](C(C)C)NC(=O)[C@H](CC2CCCCC2)NC(=O)[C@H](CCN)NC1=O` [Compound 1374], the IC50 turned out to be 9.8 nM. The figure for `CC(C)C[C@H]1NC(=O)[C@H](CCCN)NC(=O)[C@H](CCC(=O)O)NC(=O)[C@H](Cc2ccc(-c3ccccc3)cc2)NC(=O)[C@H](C(C)C)NC(=O)[C@H](Cc2c[nH]c3ccccc23)NC(=O)[C@H](CC(=O)O)NC(=O)[C@H](Cc2ccc(C#N)cc2)NC(=O)[C@H](CC(N)=O)NC(=O)CSC[C@@H](C(=O)N[C@@H](C)C(N)=O)NC(=O)[C@H]([C@@H](C)O)NC(=O)[C@H](C(C)C)NC(=O)[C@H](CC2CCCCC2)NC(=O)[C@H](CCN)NC1=O` [Compound 2185] ({CH2CO}-N[Phe(4-CN)]DWV[Bip]E[Orn][dL][Dab][Cha]VTCA-NH2; thioether N-14) is 28.1 nM.

Turning to `CC(C)C[C@H]1NC(=O)[C@H](CCCN)NC(=O)[C@H](C(C)C)NC(=O)[C@H](Cc2ccc(-c3ccccc3)cc2)NC(=O)[C@H](C(C)C)NC(=O)[C@H](Cc2cccc(C(F)(F)F)c2)NC(=O)[C@H](CC(=O)O)NC(=O)[C@H](Cc2ccc(OCC(=O)O)cc2)NC(=O)[C@H](CN)NC(=O)CSC[C@@H](C(=O)N[C@@H](C)C(N)=O)NC(=O)[C@H]([C@@H](C)O)NC(=O)[C@H](C(C)C)NC(=O)[C@H](CC2CCCCC2)NC(=O)[C@H](CCN)NC1=O` [Compound 1576], the IC50 amounted to 30.3 nM. On to `CC(C)C[C@@H]1NC(=O)[C@H](Cc2c[nH]c3ccccc23)NC(=O)[C@H](CC(=O)O)NC(=O)[C@H](Cc2ccc(O)cc2)NC(=O)[C@H](Cc2ccccc2)NC(=O)CSC[C@@H](C(=O)N[C@@H](C)C(N)=O)NC(=O)[C@H](CO)NC(=O)[C@H](C(C)C)NC(=O)[C@H](CC(C)C)NC(=O)[C@H](CC(N)=O)NC(=O)[C@@H](CC(C)C)NC(=O)[C@H](CCCN)NC(=O)[C@H](C(C)C)NC(=O)[C@H](Cc2ccc(-c3ccccc3)cc2)NC1=O` [Compound 1065] ({CH2CO}-FYDWL[Bip]V[Orn][dL]NLVSCA-NH2; thioether N-14), for which the IC50 came out at 12.8 nM. Take `Cc1cccc(C[C@@H]2NC(=O)[C@H](CC(=O)O)NC(=O)[C@H](Cc3ccc(OCC(=O)O)cc3)NC(=O)[C@H](CN)NC(=O)CSC[C@@H](C(N)=O)NC(=O)[C@H]([C@@H](C)O)NC(=O)[C@H](C(C)C)NC(=O)[C@H](CC3CCCCC3)NC(=O)[C@H](CCC(=O)O)NC(=O)[C@@H](CC(C)C)NC(=O)[C@H](CCCN)NC(=O)[C@H](Cc3ccc(OCC(=O)O)cc3)NC(=O)[C@H](Cc3ccc(-c4ccccc4)cc3)NC(=O)[C@H](Cc3ccc(OCC(=O)O)cc3)NC2=O)c1` [Compound 1775] ({CH2CO}-[Dap]Y(Carboxymethyl)D[Phe(3-Me)]Y(Carboxymethyl)[Bip]Y(Carboxymethyl)[Orn][dL]E[Cha]VTC-NH2; thioether N-14): the IC50 stood at 20.5 nM. As for `CC(C)C[C@H]1NC(=O)[C@H](CCCN)NC(=O)[C@H](C(C)C)NC(=O)[C@H](Cc2ccc(-c3ccccc3)cc2)NC(=O)[C@H](C(C)C)NC(=O)[C@H](Cc2c[nH]c3ccccc23)NC(=O)[C@H](CC(=O)O)NC(=O)[C@H](Cc2ccc(OCC(=O)O)cc2)NC(=O)[C@H](CN)NC(=O)CSC[C@@H](C(=O)N[C@@H](C)C(N)=O)NC(=O)[C@H]([C@@H](C)O)NC(=O)[C@H](C(C)C)NC(=O)[C@H](Cc2ccccc2)NC(=O)[C@H](CCN)NC1=O` [Compound 1661] ({CH2CO}-[Dap]Y(Carboxymethyl)DWV[Bip]V[Orn][dL][Dab]FVTCA-NH2; thioether N-14), the IC50 amounted to 17 nM.

In the case of `CC(C)C[C@H]1NC(=O)[C@H](CCCN)NC(=O)[C@H](CCCNC(N)=O)NC(=O)[C@H](Cc2ccc(-c3ccccc3)cc2)NC(=O)[C@H](C(C)C)NC(=O)[C@H](Cc2c[nH]c3ccccc23)NC(=O)[C@H](CC(=O)O)NC(=O)[C@H](Cc2ccc(OCC(=O)O)cc2)NC(=O)[C@H](CC2CCN(C(=N)N)CC2)NC(=O)CSC[C@@H](C(=O)N[C@@H](C)C(N)=O)NC(=O)[C@H](CO)NC(=O)[C@H](C(C)C)NC(=O)[C@H](CC2CCCCC2)NC(=O)[C@H](CN)NC1=O` [Compound 2504] ({CH2CO}-[Ala(1-amidino-4-piperidyl)]Y(Carboxymethyl)DWV[Bip][Cit][Orn][dL][Dap][Cha]VSCA-NH2; thioether N-14), the IC50 turned out to be 15.9 nM.

These data come from patent publication US20250163104A1, “MACROCYCLIC IMMUNOMODULATORS” (priority 2021, published 2025).
